In patent EP2570413A1, “Benzothiazinone derivatives as anti-tuberculosis agents” (The University Of Queensland, priority 2011, dated 2013):
Values after ≈ are worked out from the molar mass of the structure shown.

Columns and labels:
M. smegmatis SG987 [1] = test: MIC assay, broth microdilution; assay type: cell-based, Mycobacterium smegmatis; details: for MIC: Mycolicibacterium smegmatis, SG987, read-out: MIC M. smeg. SG987
Source text: The protocol used is the broth microdilution method in microtiter plates (MTP), based upon that detailed by the CLSI (Clinical and Laboratory Standards Institute (CLSI). 2006. Methods for Dilution Antimicrobial Susceptibility Tests for Bacteria that Grow Aerobically; Approved Standard. 7th edn. Document M7-A6. Clinical and Laboratory Standards Institute, Wayne, PA.).
Strain: Mycobacterium smegmatis, ATCC 700084, or other Mycobacterium strains (see table below).
Medium: The bacteria culture and the MIC were done using the following medium: MHB - Mueller-Hinton Broth + 0.05% Tween80, purchased from Difco, Tween80 has been added to avoid clumping of the bacteria.
This highest concentration is filled in the first row of the microtiter plate and further diluted in the culture medium for the Mycobacteria (Mueller-Hinton Broth and Middlebrook 7H9 broth). All solutions are freshly prepared under sterile conditions.
Resazurin salt powder (Sigma) is prepared at 0.01 % (wt/vol) in distilled water, sterilized by filtration through a 0.22 µm membrane and stored at 4°C for a week.
Ciprofloxacin, isoniaz-d and rifampicin can be used as reference compounds for control of the assay as well as a solvent control. Minimal inhibitory concentrations (MIC) are determined by the broth microdilution method. 50 µl of the compound solution in DMSO/MeOH are serially diluted directly in the microtiter plate by factor two with Mueller-Hinton broth (MHB)(Difco). Then the wells are inoculated with 50 µl of test organisms in MHB to give a final concentration of 5x10^5 CFU/ml. After microtiter plates are incubated at 37°C for 48 h, the optical density of each well is measured with a Nepheloscan Ascent 1.4 automatic plate reader (Labsystems, Vantaa, Finland). Then 30 µl of resazurin solution is added to each well and plates are allowed to incubate at 37°C for additional 24 h. A change from blue to pink indicates reduction of resazurin and therefore bacterial growth. The MIC is defined as the lowest drug concentration that prevents this colour change.

M. vaccae 10670 = test: MIC assay, broth microdilution; assay type: cell-based; details: for MIC: Mycolicibacterium vaccae, 10670
M fort. = test: MIC assay, broth microdilution; assay type: cell-based
M. aurum = test: MIC assay, broth microdilution; assay type: cell-based; details: Mycolicibacterium aurum
MDR M. tuberculosis = test: MIC assay, broth microdilution; assay type: cell-based; details: for MIC: Mycobacterium tuberculosis, read-out: MIC M. 1b.
[2] = Chemical stability in NaCl/HCl/pepsin; assay type: physicochemical
[3] = Metabolic stability, human; assay type: in vitro ADME
[4] = Metabolic stability, mouse; assay type: in vitro ADME
Plasma stability, human = assay type: in vitro ADME
Plasma stability, mouse = assay type: in vitro ADME
M. tuberculosis H37Rv = test: In-vivo mouse survival; details: 50 img/kg
M. smegmatis SG987 [5] = test: Agar diffusion assay; assay type: cell-based, Mycobacterium smegmatis; set-up: key to colonies in the inhibition zone: (p): few colonies in the inhibition zone; p: colonies in the inhibition zone; P: many colonies in the inhibition zone; A: faint indication of inhibition zone; details: for zone of inhibition at 1 µg/mL: Mycolicibacterium smegmatis; for colonies in the inhibition zone: at 1 µg/ml
Experimental: Antimicrobial activity is additionally determined by agar diffusion tests according to: European Pharmacopoeia, 3rd edition, 1997; 13, 118, Deutscher Apotheker Verlag Stuttgart
100 µl suspension of the test organism M. smegmatis SG987 with a density of McFarland standard 0.5 are inoculated into 34 ml of sterile melted agar medium (Nutrient agar from Serva Electrophoresis GmbH, Heidelberg, Germany) and poured into Petri dishes. Wells of 9 mm in diameter are cut in the agar and filled with 50 µl of the compound solution (for concentrations see Table 2). Compounds are dissolved in DMSO in a concentration of 1 mg/ml and further diluted in methanol to the final concentration. Growth inhibition zones around the agar wells are read after overnight incubation at 37°C.

Mycobacteria = details: existing anti-tuberculosis drugs, comparison values; cited from earlier work
[6] = Test compound 5 µM in 35mM NaCl, 85 mM HCl, appr. 2000 U pepsin
[7] = Human, test compound 1 µM in NADP (1.3 mM), G6P 3.3 mM, G6PDHase, DMSO
[8] = Mouse, test compound 1 µM in NADP (1.3 mM), G6P 3.3 mM, G6PDHase, DMSO
[9] = Human, test compound 5 µM in plasma
[10] = Mouse, test compound 5 µM in plasma

SMILES	MIC (M. smegmatis SG987 [1]) [ng/mL]	MIC (M. vaccae 10670) [ng/mL]	MIC (MDR M. tuberculosis) [ng/mL]	Chemical Stability [2, 6] [%]	Metabolic Stability Human [3, 7] [%]	Metabolic Stability Mouse [4, 8] [%]	Plasma Stability Human (Plasma stability, human; [9]) [%]	Plasma Stability Mouse (Plasma stability, mouse; [10]) [%]	zone of inhibition at 1 µg/mL (M. smegmatis SG987 [5]) [mm]	other results
O=c1nc(N2CCC(c3ccccc3)CC2)sc2c([N+](=O)[O-])cc(C(F)(F)F)cc12 [Compound 1]	4 (≈ 9.19 nM)	0.4 (≈ 0.919 nM)	< 15	82	120	75	96	71	–	MIC (M fort.): 12.5 ng/mL (≈ 28.7 nM); MIC (M. aurum): > 100 ng/mL; In-vivo Mouse Survival 4 wks (M. tuberculosis H37Rv): 4 of 10
O=c1nc(N2CCC(c3ccc(Cl)cc3)CC2)sc2c([N+](=O)[O-])cc(C(F)(F)F)cc12 [Compound 2]	< 5	< 0.0012	4 (≈ 8.51 nM)	52	59	39	86	88	22	MIC M. smeg. SG987 (M. smegmatis SG987 [1]; M. smeg. SG987): < 5 ng/mL; MIC M. vaccae 10670 (M. vaccae 10670; M. vaccae 10670): < 0.0012 ng/mL; MIC M. 1b. (MDR M. tuberculosis; M. 1b., MDR M. tuberculosis): 4 ng/mL (≈ 8.51 nM)
Cc1ccc(C2CCN(c3nc(=O)c4cc(C(F)(F)F)cc([N+](=O)[O-])c4s3)CC2)cc1 [Compound 3]	< 5	< 0.0012	8 (≈ 17.8 nM)	54	30	9	98	108	< 22	–
O=c1nc(N2CCC(c3cccc(F)c3)CC2)sc2c([N+](=O)[O-])cc(C(F)(F)F)cc12 [Compound 4]	< 5	< 0.0012	16 (≈ 35.3 nM)	71	28	10	99	107	24	–
O=c1nc(N2CCC(c3ccc(F)c(F)c3)CC2)sc2c([N+](=O)[O-])cc(C(F)(F)F)cc12 [Compound 5]	< 5	< 0.0012	8 (≈ 17 nM)	63	49	28	124	111	27	–
O=c1nc(N2CCC(Cc3ccccc3)CC2)sc2c([N+](=O)[O-])cc(C(F)(F)F)cc12 [Compound 6]	< 5	< 0.0012	32 (≈ 71.2 nM)	55	1	0	98	108	–	–
Cc1cccc(C2CCN(c3nc(=O)c4cc(C(F)(F)F)cc([N+](=O)[O-])c4s3)CC2)c1 [Compound 7]	< 5	< 0.0012	8 (≈ 17.8 nM)	53	21	18	103	100	–	–
O=c1nc(N2CCC(c3ccccc3F)CC2)sc2c([N+](=O)[O-])cc(C(F)(F)F)cc12 [Compound 8]	< 5	< 0.0012	8 (≈ 17.6 nM)	61	69	78	107	105	27	–
C[C@H]1COC2(CCN(c3nc(=O)c4cc(C(F)(F)F)cc([N+](=O)[O-])c4s3)CC2)O1 [I (Ref.), reference compound]	< 5	0.625 (≈ 1.45 nM)	< 15	–	–	–	–	–	17	MIC (M fort.): 1.56 ng/mL (≈ 3.62 nM); MIC (M. aurum): > 100000 ng/mL; Chemical Stability ([2]; 5 µM): 98%; Metabolic Stability Human ([3]; human, 1 µM): 107%; Metabolic Stability Mouse ([4]; mouse, 1 µM): 97%; Plasma Stability Human (Plasma stability, human; human, 5 µM): 98%; Plasma Stability Mouse (Plasma stability, mouse; mouse, 5 µM): 45%; colonies in the inhibition zone (M. smegmatis SG987 [5]): p-P
O=c1nc(N2CCN(Cc3ccccc3)CC2)sc2c([N+](=O)[O-])cc(C(F)(F)F)cc12 [II (Ref.), reference compound]	50 (≈ 111 nM)	50 (≈ 111 nM)	–	–	–	–	–	–	–	MIC (M fort.): 50 ng/mL (≈ 111 nM)
O=C(O)c1cn(C2CC2)c2cc(N3CCNCC3)c(F)cc2c1=O [III (Ref.), ciprofloxacin, reference compound]	200 (≈ 604 nM)	–	–	–	–	–	–	–	20	colonies in the inhibition zone (M. smegmatis SG987 [5]): p
CC[C@@H](CO)NCCN[C@@H](CC)CO [ethambutol]	–	–	–	–	–	–	–	–	–	MIC (Mycobacteria): 1000 to 5000 ng/mL
NNC(=O)c1ccncc1 [isoniazid]	–	–	–	–	–	–	–	–	–	MIC (Mycobacteria): 20 to 200 ng/mL
